Measurements from article PMC6013238, “Development of novel NEMO-binding domain mimetics for inhibiting IKK/NF-κB activation” (PLoS Biology, 2018).
Values joined by “and” are separate entries in the source; they are usually repeats but may differ in a detail not shown here. Equal entries are not always repeated.

Test system: mdx mice
Assay: Chronic treatment of mdx mice, hematoxylin-eosin histology of TA muscle
Format: in vivo, mouse
Settings: SR 30 mg/kg; for Percentage of area exhibiting necrosis or infiltration, TA muscle: Fig 7C, 8K-NBD 10 mg/kg i.p. 3 times/wk for 4 wk, single mice; for Muscle pathology of TA muscle (hematoxylin-eosin): 8K-NBD 10 mg/kg, 3 times/wk 4 wk
Excerpt: Fig 7 NBD mimetics improve muscular pathology and grip strength in mdx mice. (A) Shown is the treatment regimen with NBD mimetics in mdx mice. (B) Hematoxylin–eosin staining of TA muscle from 7-wk-old, treated or untreated mdx mice. Images were taken at magnification of 20×. Representative images were shown for each treatment group. […] (E) TA muscle from 7-wk-old, treated or untreated mdx mice was stained with laminin by IHC to outline myofibers. Overall images of TA muscle were shown on the left side, and the inset panel images were shown on the right side. (F) Quantitation of minimum Feret diameter in centrally and noncentrally nucleated myofibers. (G) Forelimb force determined by grip strength test. Five-wk-old (2 wk post treatment) and 7-wk-old (4 wk post treatment) mdx mice, treated or untreated, were tested for forelimb grip strength. Five sequential tests were performed, and the force was normalized to body weight. Data were shown as mean +/− SEM. Dosages used are as follows: SR12343 (30 mg/kg), SR12460 (30 mg/kg), and 8K-NBD peptide (10 mg/kg). n = 6–7 each group. *P < 0.05, **P < 0.01. Underlying data can be found in S1 Data. eMyHC, embryonic myosin heavy chain; IHC, immunohistochemistry; NBD, NEMO-binding domain; NEMO, NF-κB essential modulator; Pax7, paired box protein 7; qRT-PCR, quantitative real-time polymerase chain reaction; TA, tibialis anterior.
To determine whether SR12343 and SR12460 improve muscle pathology, TA muscle was stained with hematoxylin–eosin to assess inflammatory infiltration, necrosis, central nucleation, and fibrosis. […] In addition, Masson trichrome stain was conducted to further measure muscle fibrosis. Chronic treatment with SR12343 reduced muscle fibrosis (blue) in diaphragm and TA muscle tissues in comparison to control group (Fig 8A & 8B). To further quantitate the extent of inflammation in mdx muscle tissues, diaphragm and TA muscle were immunostained for cluster of differentiation 68 (CD68), a macrophage marker. Treatment with SR12343 reduced the number of CD68^+ cells by almost 50% per myofiber in both diaphragm and TA tissues (Fig 8A & 8B). […] To quantify the average fiber size in an unbiased way, TA muscle was stained with laminin to outline myofibers, and Feret diameter of all myocytes was quantitated in a whole muscle section.
HEK293 cells and MEFs were grown in Dulbecco’s Modified Eagle Medium (with 4.5 g/L glucose and L-glutamine), supplemented with 10% fetal bovine serum, penicillin, and streptomycin. […]
Supplementary file pbio.2004663.s005.tif: S4 Fig Chronic treatment with NBD mimetics improves muscle pathology by inhibiting NF-κB DNA binding activity in mdx mice. (A) Quantification of percentage of centralized myonuclei. […]

SMILES	Percentage of area exhibiting necrosis or infiltration, TA muscle	Muscle pathology of TA muscle (hematoxylin-eosin)
O=C(CNc1ccc(Cl)cn1)NCCc1cccc(Br)c1 [SR12343]	2% and 3% and 0% and 1%	most significant pathological improvement
O=C(CNCCc1cc(F)cc(F)c1)Nc1ccc(Cl)cn1 [SR12460]	3% and 6%	improved muscle pathology, although not as effectively as SR12343
